According to patent US9932331B2, “Phenyl tetrahydroisoquinoline compound substituted with heteroaryl” (TAISHO PHARMACEUTICAL CO., LTD, priority 2014, dated 2018):
pIC50: −log10 of the molar value. Structures can show the parent of a compound that is named as a salt.

Legend:
human NHE3 = target: T1, human NHE3 (Homo sapiens, UniProt P48764); test: NHE3 inhibition test (recovery of intracellular pH in cell line stably expressing human NHE3); assay type: cell-based; details: OK cells deficient in endogenous NHE stably expressing human NHE3; BCECF fluorescence, initial rate of pH recovery; read-out: human NHE3 inhibitory activity IC50
T1 sequence (P48764 26-834): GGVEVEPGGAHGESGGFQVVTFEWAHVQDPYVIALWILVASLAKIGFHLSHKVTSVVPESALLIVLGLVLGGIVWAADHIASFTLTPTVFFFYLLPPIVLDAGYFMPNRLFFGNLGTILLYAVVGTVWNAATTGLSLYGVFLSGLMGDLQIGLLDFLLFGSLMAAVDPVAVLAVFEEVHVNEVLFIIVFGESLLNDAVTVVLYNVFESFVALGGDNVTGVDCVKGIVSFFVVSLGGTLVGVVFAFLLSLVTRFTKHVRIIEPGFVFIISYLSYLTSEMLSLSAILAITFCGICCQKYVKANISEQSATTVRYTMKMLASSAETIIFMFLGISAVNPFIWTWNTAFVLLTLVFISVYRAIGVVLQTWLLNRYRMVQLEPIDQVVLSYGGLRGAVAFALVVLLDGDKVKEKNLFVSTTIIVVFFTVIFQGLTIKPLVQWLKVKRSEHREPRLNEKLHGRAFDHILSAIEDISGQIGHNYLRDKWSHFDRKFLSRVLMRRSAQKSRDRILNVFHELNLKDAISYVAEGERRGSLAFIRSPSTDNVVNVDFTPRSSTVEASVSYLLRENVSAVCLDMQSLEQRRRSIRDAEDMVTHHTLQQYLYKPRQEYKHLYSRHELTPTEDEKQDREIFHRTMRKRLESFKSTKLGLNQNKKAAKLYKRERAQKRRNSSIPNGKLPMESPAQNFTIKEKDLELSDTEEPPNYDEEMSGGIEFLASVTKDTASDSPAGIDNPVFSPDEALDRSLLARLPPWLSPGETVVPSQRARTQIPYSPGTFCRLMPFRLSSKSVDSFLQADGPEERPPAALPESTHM
Method in brief: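 Opossum kidney cells lacking endogenous NHE, stably expressing human NHE3, loaded with BCECF-AM and acid-loaded by NH4Cl washout. Compound in Na-free buffer, then Na-containing buffer (pH 7.4) added; initial pH-recovery rate by BCECF fluorescence, IC50 versus no-compound recovery.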

SD rat = test: 32P-phosphate oral loading test using SD rat (phosphorus absorption inhibitory effect); assay type: in vivo; details: SD male rats, plasma radioactivity 30 minutes after 32P-phosphate solution, vs control group
Method in brief: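 Male 8-week-old SD rats were dosed orally at 5 ml/kg with compound at 0.2 mg/mL or 0.6 mg/mL in water, then 5 min later given 32P-phosphate in 1.3 mM NaH2PO4 (5 ml/kg). Plasma radioactivity at 30 minutes was counted by liquid scintillation; inhibition (%) was calculated relative to the water-dosed control group.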

[1] = Rattus norvegicus, 0.5 h, oral dose 3 mg/kg, read-out: Rate of inhibition of phosphate absorption

| pIC50 (human NHE3) | SMILES | Rate of inhibition of phosphate absorption (SD rat; oral dose 1 mg/kg) [%] | inhibition in vivo at 3 mg/kg (SD rat; [1]) [%] | Rate of inhibition of phosphate absorption (SD rat; oral dose 3 mg/kg) [%] | inhibition in vivo at 1 mg/kg (SD rat; Rattus norvegicus, 0.5 h, oral dose 1 mg/kg, read-out: Rate of inhibition of phosphate absorption) [%] |
| --- | --- | --- | --- | --- | --- |
| 7.81 | CN1Cc2c(Cl)cc(Cl)cc2[C@H](c2cccc(-c3cncc(NCCOCCOCCNC(=O)CCC(=O)NCCOCCOCCNc4cncc(-c5cccc([C@@H]6CN(C)Cc7c(Cl)cc(Cl)cc76)c5)n4)n3)c2)C1 [Example 8-6, N,N′-Bis[2-(2-{2-[(6-{3-[(4S)-6,8-dichloro-2-methyl-1,2,3,4-tetrahydroisoquinolin-4-yl]phenyl}pyrazin-2-yl)amino]ethoxy}ethoxy)ethyl]butanediamide pentahydrochloride] |  | 26 |  |  |
| 8.21 | CN1Cc2c(Cl)cc(Cl)cc2[C@H](c2cccc(-c3cc(NCCOCCOCCNC(=O)[C@H](O)[C@@H](O)C(=O)NCCOCCOCCNc4cc(-c5cccc([C@@H]6CN(C)Cc7c(Cl)cc(Cl)cc76)c5)ncn4)ncn3)c2)C1 [Example 8-8, (2R,3R)-N,N′-Bis[2-(2-{2-[(6-{3-[(4S)-6,8-dichloro-2-methyl-1,2,3,4-tetrahydroisoquinolin-4-yl]phenyl}pyrimidin-4-yl)amino]ethoxy}ethoxy)ethyl]-2,3-dihydroxybutanediamide hydrochloride] |  | 39 |  |  |
| 8.21 | CN1Cc2c(Cl)cc(Cl)cc2[C@H](c2cccc(-c3cc(NCCOCCOCCOCCNC(=O)CCC(=O)NCCOCCOCCOCCNc4cc(-c5cccc([C@@H]6CN(C)Cc7c(Cl)cc(Cl)cc76)c5)ncn4)ncn3)c2)C1 [Example 8-12, N,N′-Bis{2-[2-(2-{2-[(6-{3-[(4S)-6,8-dichloro-2-methyl-1,2,3,4-tetrahydroisoquinolin-4-yl]phenyl}pyrimidin-4-yl)amino]ethoxy}ethoxy)ethoxy]ethyl}butanediamide hydrochloride] |  | 6 |  |  |
| 8.04 | CN1Cc2c(Cl)cc(Cl)cc2C(c2cccc(-c3cnnc(NCCOCCOCCNC(=O)C(O)C(O)C(=O)NCCOCCOCCNc4cc(-c5cccc(C6CN(C)Cc7c(Cl)cc(Cl)cc76)c5)cnn4)c3)c2)C1 [Example 8-14, (2R,3R)-N-[2-(2-{2-[(5-{3-[(4R)-6,8-Dichloro-2-methyl-1,2,3,4-tetrahydroisoquinolin-4-yl]phenyl}pyridazin-3-yl)amino]ethoxy}ethoxy)ethyl]-N′-[2-(2-{2-[(5-{3-[(4S)-6,8-dichloro-2-methyl-1,2,3,4-tetrahydroisoquinolin-4-yl]phenyl}pyridazin-3-yl)amino]ethoxy}ethoxy)ethyl]-2,3-dihydroxybutanamide tetrahydrochloride] |  |  |  | 46 |
| 8.12 | CN1Cc2c(Cl)cc(Cl)cc2[C@H](c2cccc(-c3cc(OCCOCCOCCNC(=O)[C@H](O)[C@@H](O)C(=O)NCCOCCOCCOc4cc(-c5cccc([C@@H]6CN(C)Cc7c(Cl)cc(Cl)cc76)c5)ncn4)ncn3)c2)C1 [Example 8-16, (2R,3R)-N,N′-Bis[2-(2-{2-[(6-{3-[(4S)-6,8-dichloro-2-methyl-1,2,3,4-tetrahydroisoquinolin-4-yl]phenyl}pyrimidin-4-yl)oxy]ethoxy}ethoxy)ethyl]-2,3-dihydroxybutanediamide hydrochloride] |  | 31 |  |  |
| 8.60 | CN1Cc2c(Cl)cc(Cl)cc2[C@H](c2cccc(-c3cc(OCCOCCOCCOCCNC(=O)[C@H](O)[C@@H](O)C(=O)NCCOCCOCCOCCOc4cc(-c5cccc([C@@H]6CN(C)Cc7c(Cl)cc(Cl)cc76)c5)ncn4)ncn3)c2)C1 [Example 8-17, (2R,3R)-N,N′-Bis{2-[2-(2-{2-[(6-{3-[(4S)-6,8-dichloro-2-methyl-1,2,3,4-tetrahydroisoquinolin-4-yl]phenyl}pyrimidin-4-yl)oxy]ethoxy}ethoxy)ethoxy]ethyl}-2,3-dihydroxybutanediamide hydrochloride] |  | 18 |  |  |
| 7.97 | CN1Cc2c(Cl)cc(Cl)cc2[C@@H](c2cccc(-c3cc(OCCOCCOCCOCCNC(=O)COCC(=O)NCCOCCOCCOCCOc4cc(-c5cccc([C@@H]6CN(C)Cc7c(Cl)cc(Cl)cc76)c5)ncn4)ncn3)c2)C1 [Example 8-18, 1-[(6-{3-[(4R)-6,8-Dichloro-2-methyl-1,2,3,4-tetrahydroisoquinolin-4-yl]phenyl}pyrimidin-4-yl)oxy]-N-{2-[2-(2-{2-[(6-{3-[(4S)-6,8-dichloro-2-methyl-1,2,3,4-tetrahydroisoquinolin-4-yl]phenyl}pyrimidin-4-yl)oxy]ethoxy}ethoxy)ethoxy]ethyl}-13-oxo-3,6,9,15-tetraoxa-12-azaheptadecan-17-amide hydrochloride] |  | 27 |  |  |

The next lines start with the compound.

| SMILES | pIC50 (human NHE3) | Rate of inhibition of phosphate absorption (SD rat; oral dose 1 mg/kg) [%] | inhibition in vivo at 3 mg/kg (SD rat; [1]) [%] | Rate of inhibition of phosphate absorption (SD rat; oral dose 3 mg/kg) [%] | inhibition in vivo at 1 mg/kg (SD rat; Rattus norvegicus, 0.5 h, oral dose 1 mg/kg, read-out: Rate of inhibition of phosphate absorption) [%] |
| --- | --- | --- | --- | --- | --- |
| CN1Cc2c(Cl)cc(Cl)cc2[C@H](c2cccc(-c3cn(CCOCCOCCOCCOCCOCCNC(=O)NCCCCNC(=O)NCCOCCOCCOCCOCCOCCn4cc(-c5cccc([C@@H]6CN(C)Cc7c(Cl)cc(Cl)cc76)c5)nn4)nn3)c2)C1.Cl [Example 7-39, 1,1′-Butane-1,4-diylbis {3-[17-(4-{3-[(4S)-6,8-dichloro-2-methyl-1,2,3,4-tetrahydroisoquinolin-4-yl]phenyl}-1H-1,2,3-triazol-1-yl)-3,6,9,12,15-pentaoxaheptadec-1-yl]urea}hydrochloride] | 8.49 | 38 |  |  |  |
| CN1Cc2c(Cl)cc(Cl)cc2[C@H](c2cccc(-c3cc(NCCOCCOCCOCCNC(=O)NCCCCNC(=O)NCCOCCOCCOCCNc4cc(-c5cccc([C@@H]6CN(C)Cc7c(Cl)cc(Cl)cc76)c5)ncn4)ncn3)c2)C1 [Example 7-40, 1,1′-Butane-1,4-diylbis(3-{2-[2-(2-{2-[(6-{3-[(4S)-6,8-dichloro-2-methyl-1,2,3,4-tetrahydroisoquinolin-4-yl]phenyl}pyrimidin-4-yl)amino]ethoxy}ethoxy)ethoxy]ethyl}urea) trifluoroacetate] | 7.96 |  | 28 |  |  |
| CN1Cc2c(Cl)cc(Cl)cc2[C@H](c2cccc(-c3cn(CCOCCOCCOCCNC(=O)NCCN(CCCCN(CCNC(=O)NCCOCCOCCOCCn4cc(-c5cccc([C@@H]6CN(C)Cc7c(Cl)cc(Cl)cc76)c5)nn4)C(N)=O)C(N)=O)nn3)c2)C1.O=CO [Example 7-42, 3,3′-Butane-1,4-diylbis {3-[16-(4-{3-[(4S)-6,8-dichloro-2-methyl-1,2,3,4-tetrahydroisoquinolin-4-yl]phenyl}-1H-1,2,3-triazol-1-yl)-4-oxo-8,11,14-trioxa-3,5-diazahexadec-1-yl]urea}formate] | 8.26 |  |  | 29 |  |
| CN1Cc2c(Cl)cc(Cl)cc2[C@H](c2cccc(-c3cn(CCOCCOCCOCCOCCNC(=O)NCCOCCOCCOCCOCCn4cc(-c5cccc([C@@H]6CN(C)Cc7c(Cl)cc(Cl)cc76)c5)nn4)nn3)c2)C1 [Example 7-43, 1,3-Bis[14-(4-{3-[(4S)-6,8-dichloro-2-methyl-1,2,3,4-tetrahydroisoquinolin-4-yl]phenyl}-1H-1,2,3-triazol-1-yl)-3,6,9,12-tetraoxatetradec-1-yl]urea hydrochloride] | 8.07 |  | 37 |  |  |
| CN1Cc2c(Cl)cc(Cl)cc2[C@H](c2cccc(-c3cn(CCOCCOCCOCCOCCNC(=O)Nc4ccc(NC(=O)NCCOCCOCCOCCOCCn5cc(-c6cccc([C@@H]7CN(C)Cc8c(Cl)cc(Cl)cc87)c6)nn5)cc4)nn3)c2)C1 [Example 7-45, 1,1′-Benzene-1,4-diylbis {3-[14-(4-{3-[(4S)-6,8-dichloro-2-methyl-1,2,3,4-tetrahydroisoquinolin-4-yl]phenyl}-1H-1,2,3-triazol-1-yl)-3,6,9,12-tetraoxatetradec-1-yl]urea}hydrochloride] | 8.24 |  | 29 |  |  |
| CN1Cc2c(Cl)cc(Cl)cc2[C@H](c2cccc(-c3cn(CCOCCOCCOCCOCCOCCNC(=O)Nc4ccc(NC(=O)NCCOCCOCCOCCOCCOCCn5cc(-c6cccc([C@@H]7CN(C)Cc8c(Cl)cc(Cl)cc87)c6)nn5)cc4)nn3)c2)C1 [Example 7-46, 1,1′-Benzene-1,4-diylbis {3-[17-(4-{3-[(4S)-6,8-dichloro-2-methyl-1,2,3,4-tetrahydroisoquinolin-4-yl]phenyl}-1H-1,2,3-triazol-1-yl)-3,6,9,12,15-pentaoxaheptadec-1-yl]urea}hydrochloride] | 7.96 |  | 23 |  |  |
